Measurements as given in patent US7807663B2, “Therapeutic agents for diabetes” (Ajinomoto Co., Inc., priority 2003, dated 2010).
In brackets after ≈: the same amount, converted by molar mass.

Key:
adipose cells of rats = experiment: Evaluation of the sugar transportation activity (2-[14C(U)]-deoxy-D-glucose incorporation); type: cell-based, Wistar rats; details: concentration with reinforcing effect of 50% of that of insulin (100 nM) = 100%; rat adipose cells, 30 min pre-culture at 37° C., 5 min uptake
Method in brief: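 Collagenase-isolated epididymal adipocytes from male Wistar rats in 2% BSA/KRH (pH 7.6) preincubated with compound 30 min at 37 °C, then pulsed with 2-[14C(U)]-deoxy-D-glucose (0.5 μCi/sample) 5 min; uptake stopped with 10 μM cytochalasin B, cells separated through dinonyl phthalate and counted by scintillation. EC50 (μg/mL) = concentration giving 50% of the 100 nM insulin effect.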

GK rats = experiment: Combinational effect with insulin secretagogue (gliclazide) using GK rats (Example 2); type: in vivo; details: combined with gliclazide, compared with alone groups, same experiment as Example 1
Procedure: (§1) The compound (II) (100 mg/kg) was orally administered to C57BL/6NCrj mice (11 week age, male) and soon after that, gliclazide (3 mg/kg) was orally administered. After administration, the blood was taken from their caudal veins over time to determine the blood glucose level. Area under the curve of blood glucose level changes until 70 minutes after the administration was set as an index and variations from a control group (Vehicle administered group) were compared.
The same experiment is conducted as that of Example 1 except that the compounds of the Compound Nos. 6, 8, 62, 80, 81, 88, 91, […], 105, 106, 129, 130, 131 and 132 in Tables 1 and 2 are used instead of the compound (II), and GK rats are used instead of normal mice.

C57BL/KsJ-db/bdJcl mice [1] = experiment: Combinational effect with biguanide (metformin) using db/db mice (Example 3); type: in vivo; details: compound 30 mg/kg oral combined with metformin 100 mg/kg oral, compared with alone groups
Procedure: FIG. 2 is a chart showing a combinational effect of the compound (III) and metformin in Example 3 (average value+standard deviation, each group N=6).
The compound (III) of the Compound No. 98 in above Table 1, which is indicated by the following structural formula, was used for the investigation. The compound is that described as Example 131 in WO02/44180 and synthesized in accordance with the method described in the international publication.
(§2) The compound (III) (30 mg/kg) was orally administered to C57BL/KsJ-db/bdJcl mice (10 week age, male) and soon after that, metformin (100 mg/kg) was orally administered. 60 minutes after administration, the blood was taken from their caudal veins to determine the blood glucose level.

C57BL/KsJ-db/bdJcl mice [2] = experiment: Combinational effect with glitazone (pioglitazone) using db/db mice, oral glucose load (Examples 5 and 6); type: in vivo; details: single oral administration combined with pioglitazone 10 mg/kg/day oral for 10 days, compared with alone groups
Procedure: The oral glucose load experiments are conducted using C57BL/KsJ-db/bdJcl mice in the conditions with or without the oral administeration of pioglitazone (10 mg/kg/day) for 10 days and with or without a single oral administration of the compound (III).
The same experiment is conducted as that of Example 5 except that the compounds of the Compound Nos. 6, 8, 62, 80, 81, 88, 91, 96, 105, 106, 129, 130, 131 and 132 in Tables 1 and 2 are used instead of the compound (III).

C57BL/KsJ-db/bdJcl mice [3] = experiment: Combinational effect with insulin using db/db mice (Examples 7 and 8); type: in vivo; details: combined with insulin 0.2 U/kg, compared with alone groups, same experiment as Example 3
Procedure: The compound (III) (30 mg/kg) was orally administered to C57BL/KsJ-db/bdJcl mice (10 week age, male) and soon after that, metformin (100 mg/kg) was orally administered. 60 minutes after administration, the blood was taken from their caudal veins to determine the blood glucose level. The same experiment is conducted as that of Example 3 except that insulin (0.2 U/kg) is used instead of metformin. […] The same experiment is conducted as that of Example 7 except that the compounds of the Compound Nos. 6, 8, 62, 80, 81, 88, 91, 96, 105, 106, 129, 130, 131 and 132 in Tables 1 and 2 are used instead of the compound (III).

C57BL/6NCrj mice = experiment: Combinational effect with insulin secretagogue (gliclazide) using normal mice (Example 1); type: in vivo; details: compound 100 mg/kg oral combined with gliclazide 3 mg/kg oral, compared with alone groups
Procedure: FIG. 1 is a chart showing a combinational effect of the compound (II) and gliclazide in Example 1 (average value±standard deviation, each group N=4).
The compound (II) of the Compound No. 96 in above Table 1, which is indicated by the following structural formula, was used for the investigation. The compound is that described as Example 129 in WO02/44180 and synthesized in accordance with the method described in the international publication.
as §1

KK-Ay mice = experiment: Combinational effect with biguanide (metformin) using KK-Ay mice (Example 4); type: in vivo; details: combined with metformin, compared with alone groups, same experiment as Example 3
Procedure: as §2
The same experiment is conducted as that of Example 3 except that the compounds of the Compound Nos. 6, 8, 62, 80, 81, 88, 91, 96, 105, 106, 129, 130, 131 and 132 in Tables 1 and 2 are used instead of the compound (III), and KK-Ay mice are used instead of db/bd mice.

| SMILES | EC50 (adipose cells of rats) | hypoglycemic action (blood glucose level) (GK rats) | hypoglycemic action (blood glucose level 60 minutes after administration) (C57BL/KsJ-db/bdJcl mice [1]) | hypoglycemic action (oral glucose load) (C57BL/KsJ-db/bdJcl mice [2]) | hypoglycemic action (blood glucose level) (C57BL/KsJ-db/bdJcl mice [3]) | hypoglycemic action (area under the curve of blood glucose level changes until 70 minutes, variation from vehicle group) (C57BL/6NCrj mice) | hypoglycemic action (blood glucose level) (KK-Ay mice) | A: sugar transportation activity (EC50) (adipose cells of rats) |
| --- | --- | --- | --- | --- | --- | --- | --- | --- |
| CCc1ccccc1[C@@H]1C2=C(CNC2=O)N[C@@H]2CCCC[C@H]2N1C(C)=O [Compound 98] | 4 µg/mL (≈ 11.3 µM) | remarkable hypoglycemic action | remarkable hypoglycemic action | remarkable hypoglycemic action | remarkable hypoglycemic action | – | – | – |
| CCOCC(=O)N1[C@@H]2CCCC[C@H]2NC2=C(C(=O)NC2)[C@H]1c1ccccc1CC [Compound 96] | 5.4 µg/mL (≈ 13.6 µM) | – | – | remarkable hypoglycemic action | remarkable hypoglycemic action | remarkable hypoglycemic action | remarkable hypoglycemic action | – |
| CCC(=O)N1[C@@H]2CCCC[C@H]2N(C)C2=C(C(=O)NC2)[C@H]1c1ccccc1C [Compound 91] | – | remarkable hypoglycemic action | – | remarkable hypoglycemic action | remarkable hypoglycemic action | – | remarkable hypoglycemic action | 0.45 µg/mL |
| COc1ccccc1[C@@H]1C2=C(CNC2=O)N[C@@H]2CCCC[C@H]2N1C(=O)CO [Compound 8] | – | remarkable hypoglycemic action | – | remarkable hypoglycemic action | remarkable hypoglycemic action | – | remarkable hypoglycemic action | 2 µg/mL |
